Legend:
[1] = biological target: T1, adenylyl cyclase activity in the striatum (type 5 adenylyl cyclase) (Mus musculus, UniProt P84309); test: Membrane adenylyl cyclase assay, WT striatal membrane, forskolin-stimulated; assay type: biochemical; conditions: 100 μM compound; 50 μM forskolin; WT striatal membrane; read-out: forskolin-stimulated adenylyl cyclase activity (relative to activity without inhibitor = 100)
T1 construct: IC50 on adenylyl cyclase activity in the striatum; other: WT; estimated from 10, 50 and 100 μM; other: 100 μM compound
Experimental: (§1) FIG. 2 Inhibitory effects of various compounds on adenylyl cyclase activity in mouse striatum. The striatum is part of the brain. Here, it is known that type 5 adenylyl cyclase occupies almost all of the enzyme activity. […] Relative values are shown with adenylyl cyclase activity in the presence of 50 μM forskolin but in the absence of inhibitors being taken as 100 (n=4, means±S.E.).
(§2) <Membrane Adenylyl Cyclase Assay>
(§3) Striatal, cardiac and pulmonary tissues were removed from WT (C57BL) (Charles River Laboratories Japan, Inc.) and AC5KO (Circ. Res. 93: 364-371, 2003), both of which were 12-15 weeks of age after birth, and individual membrane protein fractions were prepared therefrom. The resultant membrane preparations were incubated with a reaction mixture (20 mM HEPES, pH 8, 5 mM MgCl2, 0.5 mM EDTA, pH 8, 0.1 mM ATP, 1 mM phospho creatine, 8 U/mL creatine phosphor kinase, 200 μM IBMX) at 30° C. in the presence of forskolin (an activator of adenylyl cyclase) (50 μM, Sigma Cat. No. F6886) and various compounds, to thereby allow production of cAMP. In this assay, striatum- or lung-derived membrane preparations were used in an amount of 1 μg, and heart-derived membrane preparation was used in an amount of 2 μg. 15 minutes (striatum and lung) or 30 minutes (heart) after its start, the reaction was terminated by adding trichloroacetate (TCA) solution to give a final concentration of 5%. Then, the protein was precipitated by centrifugation (13,500×g, 10 min).
(§4) In both membrane adenylyl cyclase assay and cAMP accumulation assay, the amount of cAMP contained in TCA solution was determined by radioimmunoassay using […].

[2] = system: adenylyl cyclase activity in the striatum (type 5 adenylyl cyclase); test: as above; assay type: biochemical, mouse; conditions: 10 μM; WT; striatum vs lung
Experimental: as §1, §2, §3, §4

[3] = system: adenylyl cyclase activity in the heart; test: Membrane adenylyl cyclase assay, WT heart membrane, forskolin-stimulated; assay type: biochemical, mouse; conditions: 10 μM; wild-type mouse; heart vs lung
Description: FIG. 3 Inhibitory effects of individual vidarabine derivatives on adenylyl cyclase activity in the striatum, heart and lung. With adenylyl cyclase activity in the presence of […] but in the absence of inhibitors being taken as 100, the reductions in adenylyl cyclase activity upon treatment with various inhibitors at the concentrations indicated on the horizontal axis are shown (n=4, means±S.E.).
as §2, §3, §4

[4] = system: cardiac function (LVEF) of isoproterenol-loaded mice; test: Chronic catecholamine loading experiment (isoproterenol heart failure model); assay type: in vivo, mouse; conditions: 15 mg/kg/day for 7 days, osmotic mini-pump, with isoproterenol 60 mg/kg/day; C57BL/6N
Experimental: FIG. 9 Prophylactic effects on heart failure. Isoproterenol alone (60 mg/kg/day for 7 days) was administered to wild-type mice (C57BL/6N) for one week with an osmotic mini-pump (Alzet2001) (ISO). Other WT received isoproterenol with vidarabine, V2E, V3E or V5E (15 mg/kg/day for 7 days).
<Chronic Catecholamine Loading Experiment>
An osmotic mini-pump filled with isoproterenol was hypodermically implanted in mice, and isoproterenol was administered for 1 week continuously in a sustained-release manner (60 mg/kg). The cardiac function of mice (EF, ejection fraction) was measured by cardiac ultrasonography, and values before and after isoproterenol administration were compared. It is generally known that when isoproterenol is administered to mice with a mini-pump, their cardiac function (EF) decreases (i.e., they manifest heart failure).
Isoproterenol alone (60 mg/kg/day for 7 days) was administered to WT (C57BL/6N) for 1 week with an osmotic mini-pump (Alzet 2001). Other WT received isoproterenol and, at the same time, vidarabine, V2E, V3E or V5E (15 mg/kg/day for 7 days).

[5] = Toxicity test (blood BUN, creatinine, GPT, GOT); assay type: in vivo, mouse; conditions: 15 mg/kg/day for 7 days, osmotic mini-pump
Experimental: FIG. 11 Toxicity test. Vidarabine, V2E, V3E and V5E were administered individually with an osmotic mini-pump (15 mg/kg/day for 7 days). Then, blood samples were taken and subjected to BUN, creatinine, GPT and GOT measurements. The results were compared with the results from a control group.
Vidarabine, V2E, V3E and V5E were administered individually to WT (C57BL/6N; Nippon SLC) with an osmotic mini-pump (15 mg/kg/day for 7 days). Then, blood samples were taken and subjected to BUN, creatinine, OPT and GOT measurements. The results were compared with the results from control group.

[6] = system: cardiac myocytes in myocardial tissues; test: TUNEL staining of myocardial tissues of chronic catecholamine-loaded mice; assay type: in vivo, mouse; conditions: mice of the chronic isoproterenol loading experiment
Experimental: FIG. 12 TUNEL stain of myocardial tissues. Apoptosis positive cardiac myocytes in the hearts of mice used in chronic catecholamine loading experiment (FIG. 9) were evaluated by TUNEL staining (n=4-6, means±SE).
<TUNEL Staining of Myocardial Tissues>
Apoptosis positive cells of the mice used in the chronic catecholamine loading experiment were evaluated by TUNEL staining.

[7] = system: strychnine-induced tonic extensive convulsion and death; conditions: for time to death induced by strychnine convulsion: 150 mg/kg (0.525 mmol/kg) and 300 mg/kg (1.05 mmol/kg) i.p. 15 min before strychnine 1.5 mg/kg; for migration to the central nervous system: evaluated indirectly from strychnine antagonism
Experimental: FIG. 13 Effects on the central nervous system. […] Strychnine nitrate dissolved in physiological saline was administered in the cervicodorsal hypoderm of mice (C57BL/6N; Nippon SLC; male; 10-12 week old) at a dose of 1.5 mg/kg. Subsequently, the time to death through tonic extensive convulsion was measured so that the effect on migration to the central nervous system was evaluated indirectly. Vidarabine, V2E, V3E and V5E were dissolved or suspended in physiological saline and administered intraperitoneally 15 minutes before strychnine administration (n=4-10, means±SE) (FIG. 13). Death was judged to have occurred when the thoracic respiratory movement ceased.
The migration of vidarabine, V2E, V3E and V5E to the central nervous system was evaluated by antagonism against the tonic extensive convulsion and death initiated in mice by strychnine administration. Strychnine nitrate dissolved in physiological saline was administered in the cervicodorsal hypoderm of mice (C57BL/6N; Nippon SLC; male; 10-12 week old) at a dose of 1.5 mg/kg. Subsequently, the time to death through tonic extensive convulsion was measured. Vidarabine, V2E, V3E and V5E were dissolved or suspended in physiological saline and administered intraperitoneally 15 minutes before strychnine administration.

[8] = vidarabine, background statement; cited from earlier work

T1 sequence (P84309 whole entry): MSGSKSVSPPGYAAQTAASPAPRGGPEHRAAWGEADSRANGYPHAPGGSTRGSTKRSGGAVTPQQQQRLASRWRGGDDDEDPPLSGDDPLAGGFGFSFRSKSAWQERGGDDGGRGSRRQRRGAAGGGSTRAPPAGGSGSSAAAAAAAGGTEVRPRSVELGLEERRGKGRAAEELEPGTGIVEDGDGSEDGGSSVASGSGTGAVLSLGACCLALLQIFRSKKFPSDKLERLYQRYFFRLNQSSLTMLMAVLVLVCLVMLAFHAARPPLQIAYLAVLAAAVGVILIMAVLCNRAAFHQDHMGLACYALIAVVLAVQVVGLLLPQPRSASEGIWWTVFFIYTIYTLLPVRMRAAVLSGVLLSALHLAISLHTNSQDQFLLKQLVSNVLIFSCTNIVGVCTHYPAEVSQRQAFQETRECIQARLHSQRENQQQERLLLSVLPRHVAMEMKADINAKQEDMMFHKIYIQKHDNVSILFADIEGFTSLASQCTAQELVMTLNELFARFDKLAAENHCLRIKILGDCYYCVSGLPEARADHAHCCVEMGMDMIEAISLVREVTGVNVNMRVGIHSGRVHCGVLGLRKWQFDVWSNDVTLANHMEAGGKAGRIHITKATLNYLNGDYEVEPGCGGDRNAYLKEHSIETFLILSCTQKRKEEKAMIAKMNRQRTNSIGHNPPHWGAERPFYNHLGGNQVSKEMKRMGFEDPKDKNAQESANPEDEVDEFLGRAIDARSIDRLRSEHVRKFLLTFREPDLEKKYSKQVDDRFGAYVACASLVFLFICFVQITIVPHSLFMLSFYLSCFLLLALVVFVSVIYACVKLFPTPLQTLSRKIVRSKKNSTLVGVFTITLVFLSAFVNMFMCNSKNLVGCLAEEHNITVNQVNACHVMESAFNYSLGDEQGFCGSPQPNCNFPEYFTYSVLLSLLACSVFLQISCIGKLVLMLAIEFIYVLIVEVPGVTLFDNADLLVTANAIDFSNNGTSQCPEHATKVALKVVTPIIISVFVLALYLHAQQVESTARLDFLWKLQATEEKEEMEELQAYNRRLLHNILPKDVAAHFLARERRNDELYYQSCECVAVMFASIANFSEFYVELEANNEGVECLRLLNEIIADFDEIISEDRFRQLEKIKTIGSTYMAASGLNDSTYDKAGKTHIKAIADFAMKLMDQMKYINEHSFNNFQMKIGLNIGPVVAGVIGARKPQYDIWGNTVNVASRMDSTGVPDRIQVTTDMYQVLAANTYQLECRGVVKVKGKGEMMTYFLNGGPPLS

SMILES | activity at 100 µM [1] | inhibition of adenylyl cyclase activity in striatum relative to lung (tissue specificity) [2] | inhibition of adenylyl cyclase activity in heart relative to lung (tissue specificity) [3] | inhibition of the isoproterenol-induced decrease of cardiac function (LVEF) [4] | BUN compared with control group [5] | GOT compared with control group [5] | OPT compared with control group [5] | creatinine compared with control group [5] | apoptosis of cardiac myocytes induced by chronic catecholamine stimulation (TUNEL, myocardial tissue) [6] | time to death induced by strychnine convulsion [7] | migration to the central nervous system [7] | water solubility [8]
CN(C)CC(=O)OC1C(O)C(CO)OC1n1cnc2c(N)ncnc21 (centres unmarked) [V2E, 2-O—(N,N-Dimethylglycyl)Vidarabine] | ~24.5% | about 3.0 fold | about 2.6 fold | comparable to that of vidarabine | No significant increase | No significant increase | No significant increase | No significant increase | equally inhibited | did not prolong | extremely low | 
CN(C)CC(=O)OC1C(CO)OC(n2cnc3c(N)ncnc32)C1O (centres unmarked) [V3E, 3-O—(N,N-Dimethylglycyl)Vidarabine] | ~25.1% |  |  | comparable to that of vidarabine | No significant increase | No significant increase | No significant increase | No significant increase |  | did not prolong | extremely low | 
CN(C)CC(=O)OCC1OC(n2cnc3c(N)ncnc32)C(O)C1O (centres unmarked) [V5E, 5-O—(N,N-Dimethylglycyl)Vidarabine] | ~24.9% |  |  | comparable to that of vidarabine | No significant increase | No significant increase | No significant increase | No significant increase |  | did not prolong | extremely low | 
Nc1ncnc2c1ncn2[C@@H]1O[C@H](CO)[C@@H](O)[C@@H]1O [vidarabine, reference compound] | ~17.3% | about 2.8 fold | about 2.4 fold | significantly inhibited | No significant increase | No significant increase | No significant increase | No significant increase | equally inhibited | significantly prolonged |  | poor
